Reference: publication PMC4752462 (PLoS ONE, 2016)
“And” between values parts separate entries of the source, which are not always exact repeats. Equal entries are not always repeated.

Legend:
[1] = Sample stability of EVG in the microsomal matrix (bench-top, freeze-thaw, long-term storage); assay type: physicochemical
Procedure: Accuracy and precision of the method were determined by analyzing QC samples that cover the calibration curve range of the analyte. The low QC concentration was selected to be three times the LLOQ as per the FDA guidelines. Inter-day precision and accuracy were calculated by analyzing extracted calibration standards and three QCs at different concentrations as described in our previous publications. […] Carry-over (memory) effect was determined by assessing the extracted blank immediately after the upper limit of quantification (ULOQ, 1000 ng/ml). Matrix effect (ME), recovery efficiency (RE), and process efficiency (PE) were explored by following a previously proposed methodology. The three sets of samples used for the experiments were as follows: A, pure standard solutions of EVG; B, blank microsomal extraction spiked with pure standard solutions of EVG; C, microsomal samples spiked with pure standard solutions of EVG and extracted at the low, medium, and high QC concentrations. After quantitation of the analyte the parameters were calculated using the following formulae. ME (%) = B/A x 100, RE (%) = C/B x 100, PE (%) = C/A x 100. Furthermore, analyte peak areas were corrected with their respective IS peak areas and reported. Finally, sample stability studies for the EVG in the microsomal matrix was tested using low, medium, and high QCs at the bench-top (25°C) and storage conditions (-80°C). Analyte concentrations in these samples were measured after fresh preparation and at 12, 24, and 48 hours. […] For the long-term storage, samples were analyzed after storing them at the -80°C for three months. All determined concentrations were compared with freshly prepared QCs and reported the variation as a percentage of change from the freshly made QCs. The incurred sample reanalysis was also done by randomly selecting 10% of the total samples analyzed. The obtained data was compared with the first time results of the samples to determine whether the variability is beyond ± 20%.

[2] = molecular target: T1, human recombinant CYP3A4 (Homo sapiens, UniProt P08684); assay: CYP3A4 inhibition, Vivid CYP450 blue screening kit with baculosomes; assay type: biochemical; conditions: for CYP3A4 activity (Fig 5 data): control = 100
T1 construct: purchased Life Technologies P2858; host or cells: baculosomes (baculovirus-infected insect cell microsomes)
T1 sequence (P08684 whole entry): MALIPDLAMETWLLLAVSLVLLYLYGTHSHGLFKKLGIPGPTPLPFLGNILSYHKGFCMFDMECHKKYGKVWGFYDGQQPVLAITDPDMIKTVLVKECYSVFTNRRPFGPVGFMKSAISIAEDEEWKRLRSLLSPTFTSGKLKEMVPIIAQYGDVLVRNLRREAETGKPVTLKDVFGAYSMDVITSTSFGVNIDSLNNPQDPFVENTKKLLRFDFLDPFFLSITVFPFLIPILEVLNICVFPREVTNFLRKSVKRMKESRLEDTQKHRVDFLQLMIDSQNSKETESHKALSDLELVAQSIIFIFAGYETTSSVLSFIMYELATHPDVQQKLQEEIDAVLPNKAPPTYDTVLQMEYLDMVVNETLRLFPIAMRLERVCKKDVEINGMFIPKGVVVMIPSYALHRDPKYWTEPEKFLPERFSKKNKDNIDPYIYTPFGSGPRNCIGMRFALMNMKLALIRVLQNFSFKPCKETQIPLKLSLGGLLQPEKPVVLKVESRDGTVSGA
Procedure: CYP3A4 inhibition assay was carried out by using Vivid® CYP450 Screening Kit from Life Technologies as recommended by the manufacturer (# P2858, Carlsbad, CA). This assay allows rapid measurement of interactions between drugs of interest and CYP enzymes based on their capability to inhibit the production of a fluorescent signal in reactions using CYP BACULOSOMES® Plus Reagents and specific Vivid® Substrates. Briefly, the assay was conducted in a 96-well assay plate. […] The final concentrations of 2.5, 5, 7.5, 10, 25, 50, 75, and 100 μM were achieved by diluting the stocks in 1X Vivid® CYP reaction buffer. […] For ethanol only experiment, 2.5, 5, […], 20, 30, and 50 mM final concentrations were used. The final concentration of acetonitrile in each reaction was 0.01% in 100 μl final reaction volume. The fluorescence was immediately measured using a microplate reader (Cytation™ 5 Cell Imaging Multi-Mode Reader, BioTek, VT) at the 415/460 nm excitation and emission wavelengths.
The concentrations of all the drugs were quantified using Ab Sciex Analyst® software. Microsomal kinetic data were analyzed using Michaelis-Menten and exponential decay equations. CYP3A4 inhibition data were evaluated by fitting the values to dose-response inhibition and calculated IC50 values were reported. All graphs were plotted and two-tailed t-tests were performed wherever appropriate using GraphPad Prism 5.01 (GraphPad, San Diego, CA). Significant differences between more than two groups analyzed with one-way ANOVA followed by Dunnett’s multiple comparison tests using IBM SPSS […] version 20. A p value <0.05 was considered significant compared to respective controls. The original data and/or statistical analyses for Michaelis-Menten Kinetics, drug metabolism and half-life determination, inhibition studies, and ligand docking are provided in the supporting information (S1 file).

Question: Which “long term storage stability” value ([1]; -80°C, 3-4 months, data not shown) does the source give for `COc1cc2c(cc1Cc1cccc(Cl)c1F)c(=O)c(C(=O)O)cn2[C@H](CO)C(C)C` [EVG, Elvitegravir] here?
Answer: did not exhibit significant loss in the concentration

Question: What about the “change from freshly prepared quality controls” value (shortened to “change”) ([1]; Freeze thaw (-80°C), cycle 1, High QC 3.50 μM) of the same compound?
Answer: -3%

Question: What about the “change” value ([1]; Freeze thaw (-80°C), cycle 1, Low QC 0.040 μM) of the same compound?
Answer: -12%

Question: What about the “change” value ([1]; Freeze thaw (-80°C), cycle 1, Medium QC 0.75 μM) of the same compound?
Answer: 5%

Question: And the “change” value ([1]; Freeze thaw (-80°C), cycle 2, High QC 3.50 μM)?
Answer: 3%

Question: And the “change” value ([1]; Freeze thaw (-80°C), cycle 2, Low QC 0.040 μM)?
Answer: -7%

Question: And the “change” value ([1]; Freeze thaw (-80°C), cycle 2, Medium QC 0.75 μM)?
Answer: 3%

Question: What about the “change” value ([1]; Freeze thaw (-80°C), cycle 3, High QC 3.50 μM) of the same compound?
Answer: -15%

Question: What about the “change” value ([1]; Freeze thaw (-80°C), cycle 3, Low QC 0.040 μM) of the same compound?
Answer: -3%

Question: And the “change” value ([1]; Freeze thaw (-80°C), cycle 3, Medium QC 0.75 μM)?
Answer: 5%

Question: And the “change” value ([1]; Room Temp (25°C), 0 hours, High QC 3.50 μM)?
Answer: 0%

Question: What about the “change” value ([1]; Room Temp (25°C), 0 hours, Low QC 0.040 μM) of the same compound?
Answer: 0%

Question: What about the “change” value ([1]; Room Temp (25°C), 0 hours, Medium QC 0.75 μM) of the same compound?
Answer: 0%

Question: And the “change” value ([1]; Room Temp (25°C), 12 hours, High QC 3.50 μM)?
Answer: 0.1%

Question: And the “change” value ([1]; Room Temp (25°C), 12 hours, Low QC 0.040 μM)?
Answer: -14%

Question: What about the “change” value ([1]; Room Temp (25°C), 12 hours, Medium QC 0.75 μM) of the same compound?
Answer: 9%

Question: What about the “change” value ([1]; Room Temp (25°C), 24 hours, High QC 3.50 μM) of the same compound?
Answer: 1.8%

Question: And the “change” value ([1]; Room Temp (25°C), 24 hours, Low QC 0.040 μM)?
Answer: -10%

Question: And the “change” value ([1]; Room Temp (25°C), 24 hours, Medium QC 0.75 μM)?
Answer: 4%

Question: And the “change” value ([1]; Room Temp (25°C), 48 hours, High QC 3.50 μM)?
Answer: -0.4%

Question: And the “change” value ([1]; Room Temp (25°C), 48 hours, Low QC 0.040 μM)?
Answer: -5%

Question: What about the “change” value ([1]; Room Temp (25°C), 48 hours, Medium QC 0.75 μM) of the same compound?
Answer: 7%

Question: And the “stability at room temperature” value ([1]; microsomal matrix, over 48 hours)?
Answer: considered stable

Question: And the “percentage of variation in the freeze-thaw stability studies” value ([1]; up to 3-4 freeze-thaw cycles)?
Answer: less than 15%

Question: And the “CYP3A4 activity (Fig 5 data)” value ([2]; EVG 2.5 uM)?
Answer: 77.957

Question: What about the “CYP3A4 activity (Fig 5 data)” value ([2]; EVG 5 uM) of the same compound?
Answer: 63.9794

Question: What about the “CYP3A4 activity (Fig 5 data)” value ([2]; EVG 7.5 uM) of the same compound?
Answer: 59.992

Question: And the “CYP3A4 activity (Fig 5 data)” value ([2]; EVG 10 uM)?
Answer: 55.6409

Question: What about the “CYP3A4 activity (Fig 5 data)” value ([2]; EVG 25 uM) of the same compound?
Answer: 40.6332

Question: And the “CYP3A4 activity (Fig 5 data)” value ([2]; EVG 50 uM)?
Answer: 32.8987

Question: What about the “CYP3A4 activity (Fig 5 data)” value ([2]; EVG 75 uM) of the same compound?
Answer: 28.0321

Question: And the “CYP3A4 activity (Fig 5 data)” value ([2]; EVG 100 uM)?
Answer: 18.7817

Question: What about the IC50 ([2]; EVG with ethanol at 20 mM) of the same compound?
Answer: 17.5 ± 1.5 µM

Question: And the IC50 ([2]; EtOH 20 mM, COBI at concentration matching EVG unless 0.04 μM stated)?
Answer: 13 µM and 13.1 µM

Question: What about the IC50 ([2]; With Ethanol, three values per group) of the same compound?
Answer: 19 µM and 16.5 µM

Question: And the “increase in the IC50 by ethanol” value ([2]; ethanol at 20 mM compared to EVG alone)?
Answer: 34%
